According to patent publication US10106538B2, “Inhibitors of protein kinases” (PRINCETON DRUG DISCOVERY INC, priority 2015, dated 2018):

How the values were obtained:
Experiment in all cases: Off-chip Mobility Shift Assay (MSA) kinase inhibition
Type in all cases: biochemical
MAP2K7 = molecular target: T1, MAP2K7 (Homo sapiens, UniProt O14733); conditions: inhibitor concentration 1 μM
T1 construct: purchased Carna Biosciences
Summary of the method: (§1)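 Kinase + substrate/ATP/metal + cpd, 20 mM HEPES pH 7.5, 0.01% Triton X100, 2 mM DTT; RT, 1 or 5 h depending on kinase; stop buffer; LabChip peptide separation; % inh from P/(P+S) vs enzyme(−) and complete-reaction controls.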

MAP2K6 = molecular target: T2, MAP2K6 (Homo sapiens, UniProt P52564); conditions: inhibitor concentration 1 μM
T2 construct: purchased Carna Biosciences
Summary of the method: as §1

YES = molecular target: T3, YES (Homo sapiens, UniProt P07947)
T3 construct: purchased Carna Biosciences
Summary of the method: as §1

MAP2K5 = molecular target: T4, MAP2K5 (Homo sapiens, UniProt Q13163); conditions: inhibitor concentration 1 μM
T4 construct: purchased Carna Biosciences
Summary of the method: as §1

FLT1 = molecular target: T5, FLT1 (Homo sapiens, UniProt P17948); conditions: inhibitor concentration 1 μM
T5 construct: purchased Carna Biosciences
Summary of the method: as §1

RET(S891A) = molecular target: T6, RET(S891A) (Homo sapiens, UniProt P07949, S891A)
T6 construct: purchased Carna Biosciences
Summary of the method: as §1

MST1 = molecular target: T7, MST1 (Homo sapiens, UniProt Q13043)
T7 construct: purchased Carna Biosciences
T7 sequence (Q13043 1-487): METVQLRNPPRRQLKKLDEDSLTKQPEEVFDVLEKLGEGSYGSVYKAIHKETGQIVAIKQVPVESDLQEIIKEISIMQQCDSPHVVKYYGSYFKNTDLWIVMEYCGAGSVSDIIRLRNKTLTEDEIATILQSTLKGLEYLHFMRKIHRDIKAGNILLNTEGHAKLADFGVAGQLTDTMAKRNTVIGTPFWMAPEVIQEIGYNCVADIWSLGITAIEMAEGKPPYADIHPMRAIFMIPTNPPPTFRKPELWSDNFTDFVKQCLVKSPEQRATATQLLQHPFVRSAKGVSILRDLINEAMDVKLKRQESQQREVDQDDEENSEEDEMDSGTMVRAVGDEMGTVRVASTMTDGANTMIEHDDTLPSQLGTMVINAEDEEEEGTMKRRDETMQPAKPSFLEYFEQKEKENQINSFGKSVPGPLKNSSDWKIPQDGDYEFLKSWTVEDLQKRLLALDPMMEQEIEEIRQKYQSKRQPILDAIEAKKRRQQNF
Summary of the method: as §1

FYN(isoform a) = molecular target: T8, FYN(isoform a) (Homo sapiens, UniProt P06241)
T8 construct: purchased Carna Biosciences
Summary of the method: as §1

p38β = molecular target: T9, p38β (Homo sapiens, UniProt Q15759); conditions: inhibitor concentration 1 μM
T9 construct: purchased Carna Biosciences
Summary of the method: as §1

WNK3 = molecular target: T10, WNK3 (Homo sapiens, UniProt Q9BYP7); conditions: inhibitor concentration 1 μM
T10 construct: purchased Carna Biosciences
Summary of the method: as §1

EPHA5 = molecular target: T11, EPHA5 (Homo sapiens, UniProt P54756); conditions: inhibitor concentration 1 μM
T11 construct: purchased Carna Biosciences
Summary of the method: as §1

RET(Y791F) = molecular target: T12, RET(Y791F) (Homo sapiens, UniProt P07949, Y791F)
T12 construct: purchased Carna Biosciences
Summary of the method: as §1

CSK = molecular target: T13, CSK (Homo sapiens, UniProt P41240)
T13 construct: purchased Carna Biosciences
Summary of the method: as §1

ACK = molecular target: T14, ACK (Homo sapiens, UniProt Q07912)
T14 construct: purchased Carna Biosciences
Summary of the method: as §1

FGFR1 = molecular target: T15, FGFR1 (Homo sapiens, UniProt P11362); conditions: inhibitor concentration 1 μM
T15 construct: purchased Carna Biosciences
Summary of the method: as §1

ROCK1 = molecular target: T16, ROCK1 (Homo sapiens, UniProt Q13464); conditions: inhibitor concentration 1 μM
T16 construct: purchased Carna Biosciences
Summary of the method: as §1

PKD1 = molecular target: T17, PKD1 (Homo sapiens, UniProt Q15139); conditions: inhibitor concentration 1 μM
T17 construct: purchased Carna Biosciences
Summary of the method: as §1

KIT(V654A) = molecular target: T18, KIT(V654A) (Homo sapiens, UniProt P10721, V654A); conditions: inhibitor concentration 1 μM
T18 construct: purchased Carna Biosciences
Summary of the method: as §1

FLT4 = molecular target: T19, FLT4 (Homo sapiens, UniProt P35916); conditions: inhibitor concentration 1 μM
T19 construct: purchased Carna Biosciences
Summary of the method: as §1

MST3 = molecular target: T20, MST3 (Homo sapiens, UniProt Q9Y6E0); conditions: inhibitor concentration 1 μM
T20 construct: purchased Carna Biosciences
Summary of the method: as §1

MST4 = molecular target: T21, MST4 (Homo sapiens, UniProt Q9P289); conditions: inhibitor concentration 1 μM
T21 construct: purchased Carna Biosciences
Summary of the method: as §1

FRK = molecular target: T22, FRK (Homo sapiens, UniProt P42685); conditions: inhibitor concentration 1 μM
T22 construct: purchased Carna Biosciences
Summary of the method: as §1

[1] = inhibitor concentration 0.01 μM

T12 sequence (P07949 29-1114 Y791F): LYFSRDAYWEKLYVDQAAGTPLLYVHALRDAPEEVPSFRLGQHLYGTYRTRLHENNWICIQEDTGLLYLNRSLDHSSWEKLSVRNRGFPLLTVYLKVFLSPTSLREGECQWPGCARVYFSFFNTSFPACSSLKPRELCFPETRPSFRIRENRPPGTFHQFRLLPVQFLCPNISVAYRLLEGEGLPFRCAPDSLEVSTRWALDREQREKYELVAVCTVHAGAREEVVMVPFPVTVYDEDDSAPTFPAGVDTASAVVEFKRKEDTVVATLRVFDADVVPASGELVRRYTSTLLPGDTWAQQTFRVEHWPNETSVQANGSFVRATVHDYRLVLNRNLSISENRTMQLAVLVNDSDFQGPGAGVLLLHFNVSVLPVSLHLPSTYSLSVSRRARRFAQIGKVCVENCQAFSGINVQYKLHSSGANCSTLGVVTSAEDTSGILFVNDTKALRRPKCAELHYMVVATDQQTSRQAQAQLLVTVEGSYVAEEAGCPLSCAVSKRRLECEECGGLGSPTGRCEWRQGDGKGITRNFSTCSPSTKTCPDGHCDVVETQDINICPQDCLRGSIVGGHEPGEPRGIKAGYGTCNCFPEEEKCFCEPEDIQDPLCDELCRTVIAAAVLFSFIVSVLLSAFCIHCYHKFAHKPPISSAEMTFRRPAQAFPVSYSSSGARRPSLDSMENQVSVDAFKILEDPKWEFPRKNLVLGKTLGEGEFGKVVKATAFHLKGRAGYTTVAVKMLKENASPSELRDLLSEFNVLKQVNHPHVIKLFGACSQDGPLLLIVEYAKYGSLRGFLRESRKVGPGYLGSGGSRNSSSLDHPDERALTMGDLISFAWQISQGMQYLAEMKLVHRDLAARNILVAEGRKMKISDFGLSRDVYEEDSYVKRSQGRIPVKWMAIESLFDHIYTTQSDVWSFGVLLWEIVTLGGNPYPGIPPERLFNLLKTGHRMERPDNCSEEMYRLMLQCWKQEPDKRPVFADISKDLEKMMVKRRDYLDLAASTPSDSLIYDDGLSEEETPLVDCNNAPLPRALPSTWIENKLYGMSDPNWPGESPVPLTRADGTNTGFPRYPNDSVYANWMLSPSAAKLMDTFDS
T6 sequence (P07949 29-1114 S891A): as the sequence (P07949 29-1114 Y791F) above, with F763Y, S863A counted along it
T13 sequence (P41240 whole entry): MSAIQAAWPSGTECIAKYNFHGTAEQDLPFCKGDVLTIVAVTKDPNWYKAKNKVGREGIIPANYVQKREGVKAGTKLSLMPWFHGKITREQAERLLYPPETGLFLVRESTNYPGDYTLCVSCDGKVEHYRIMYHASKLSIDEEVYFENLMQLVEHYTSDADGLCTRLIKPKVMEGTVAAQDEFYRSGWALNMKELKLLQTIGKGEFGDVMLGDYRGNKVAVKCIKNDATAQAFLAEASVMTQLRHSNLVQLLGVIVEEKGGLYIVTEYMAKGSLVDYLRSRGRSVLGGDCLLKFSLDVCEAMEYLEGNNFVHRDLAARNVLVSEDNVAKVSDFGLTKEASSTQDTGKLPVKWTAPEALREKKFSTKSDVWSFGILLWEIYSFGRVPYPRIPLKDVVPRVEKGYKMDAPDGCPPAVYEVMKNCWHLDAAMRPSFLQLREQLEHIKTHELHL
T8 sequence (P06241 whole entry, canonical isoform): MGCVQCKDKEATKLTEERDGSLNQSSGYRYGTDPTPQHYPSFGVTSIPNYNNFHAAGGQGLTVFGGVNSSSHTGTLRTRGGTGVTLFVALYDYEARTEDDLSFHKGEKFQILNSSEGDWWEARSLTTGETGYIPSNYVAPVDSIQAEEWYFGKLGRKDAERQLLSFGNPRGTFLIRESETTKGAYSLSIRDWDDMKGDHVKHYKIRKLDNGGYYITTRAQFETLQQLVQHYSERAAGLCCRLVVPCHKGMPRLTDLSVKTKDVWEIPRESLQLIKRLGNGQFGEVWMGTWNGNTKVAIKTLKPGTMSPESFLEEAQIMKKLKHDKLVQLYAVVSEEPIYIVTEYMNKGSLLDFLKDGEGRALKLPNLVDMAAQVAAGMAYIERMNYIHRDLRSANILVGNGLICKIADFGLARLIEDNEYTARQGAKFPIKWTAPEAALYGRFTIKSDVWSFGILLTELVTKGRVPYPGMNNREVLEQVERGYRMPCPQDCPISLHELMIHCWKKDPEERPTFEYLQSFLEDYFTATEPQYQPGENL
T14 sequence (Q07912 whole entry): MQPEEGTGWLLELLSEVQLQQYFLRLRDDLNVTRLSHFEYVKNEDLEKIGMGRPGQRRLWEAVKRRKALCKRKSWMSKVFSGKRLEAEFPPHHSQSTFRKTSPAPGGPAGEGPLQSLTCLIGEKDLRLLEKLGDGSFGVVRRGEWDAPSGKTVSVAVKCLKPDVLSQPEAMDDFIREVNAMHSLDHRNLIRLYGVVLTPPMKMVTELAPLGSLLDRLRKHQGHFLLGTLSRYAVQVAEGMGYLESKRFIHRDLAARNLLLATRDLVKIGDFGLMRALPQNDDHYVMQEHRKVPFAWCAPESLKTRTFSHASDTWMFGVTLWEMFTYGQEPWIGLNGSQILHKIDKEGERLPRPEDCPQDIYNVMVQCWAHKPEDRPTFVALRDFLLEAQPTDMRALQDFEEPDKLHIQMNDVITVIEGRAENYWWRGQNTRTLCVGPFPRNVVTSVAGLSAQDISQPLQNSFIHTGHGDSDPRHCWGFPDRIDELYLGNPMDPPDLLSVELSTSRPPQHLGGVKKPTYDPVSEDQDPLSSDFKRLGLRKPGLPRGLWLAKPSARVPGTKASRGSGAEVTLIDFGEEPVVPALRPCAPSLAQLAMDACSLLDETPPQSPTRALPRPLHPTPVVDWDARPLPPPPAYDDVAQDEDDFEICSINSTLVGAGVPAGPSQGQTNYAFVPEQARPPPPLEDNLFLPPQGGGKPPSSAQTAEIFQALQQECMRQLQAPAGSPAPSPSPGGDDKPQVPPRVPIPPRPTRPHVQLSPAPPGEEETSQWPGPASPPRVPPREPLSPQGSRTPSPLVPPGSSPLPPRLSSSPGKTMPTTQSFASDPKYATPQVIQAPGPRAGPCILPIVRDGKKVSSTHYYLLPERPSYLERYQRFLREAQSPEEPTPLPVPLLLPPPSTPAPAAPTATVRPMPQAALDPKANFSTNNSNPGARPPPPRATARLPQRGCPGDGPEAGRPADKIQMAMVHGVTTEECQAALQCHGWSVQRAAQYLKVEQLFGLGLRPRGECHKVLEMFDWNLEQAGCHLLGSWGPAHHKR
T3 sequence (P07947 whole entry): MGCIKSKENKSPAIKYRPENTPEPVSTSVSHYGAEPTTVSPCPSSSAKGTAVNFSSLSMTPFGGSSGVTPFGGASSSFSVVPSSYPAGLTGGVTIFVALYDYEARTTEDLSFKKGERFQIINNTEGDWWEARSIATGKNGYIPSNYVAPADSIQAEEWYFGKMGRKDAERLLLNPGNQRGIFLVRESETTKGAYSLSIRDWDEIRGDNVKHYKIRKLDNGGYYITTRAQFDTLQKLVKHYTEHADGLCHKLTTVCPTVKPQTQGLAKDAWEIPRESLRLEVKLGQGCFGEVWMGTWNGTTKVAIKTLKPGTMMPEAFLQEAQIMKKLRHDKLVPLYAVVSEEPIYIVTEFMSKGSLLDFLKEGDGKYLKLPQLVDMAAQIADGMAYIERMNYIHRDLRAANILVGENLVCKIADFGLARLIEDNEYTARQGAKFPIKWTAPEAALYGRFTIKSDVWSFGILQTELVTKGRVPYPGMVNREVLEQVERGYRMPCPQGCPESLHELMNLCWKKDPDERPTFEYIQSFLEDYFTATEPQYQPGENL
T20 sequence (Q9Y6E0 whole entry): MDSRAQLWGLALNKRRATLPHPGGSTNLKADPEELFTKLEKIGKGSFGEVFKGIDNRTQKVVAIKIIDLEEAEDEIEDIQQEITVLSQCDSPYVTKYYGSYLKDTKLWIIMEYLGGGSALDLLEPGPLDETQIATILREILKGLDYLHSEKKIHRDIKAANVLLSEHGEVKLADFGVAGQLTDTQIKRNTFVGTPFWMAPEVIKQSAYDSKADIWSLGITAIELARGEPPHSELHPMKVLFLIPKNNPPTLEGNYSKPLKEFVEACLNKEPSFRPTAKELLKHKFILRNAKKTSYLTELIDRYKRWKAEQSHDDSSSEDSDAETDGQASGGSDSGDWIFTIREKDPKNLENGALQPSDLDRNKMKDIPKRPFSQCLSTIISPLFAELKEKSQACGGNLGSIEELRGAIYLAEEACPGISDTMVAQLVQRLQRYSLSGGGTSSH
T22 sequence (P42685 whole entry): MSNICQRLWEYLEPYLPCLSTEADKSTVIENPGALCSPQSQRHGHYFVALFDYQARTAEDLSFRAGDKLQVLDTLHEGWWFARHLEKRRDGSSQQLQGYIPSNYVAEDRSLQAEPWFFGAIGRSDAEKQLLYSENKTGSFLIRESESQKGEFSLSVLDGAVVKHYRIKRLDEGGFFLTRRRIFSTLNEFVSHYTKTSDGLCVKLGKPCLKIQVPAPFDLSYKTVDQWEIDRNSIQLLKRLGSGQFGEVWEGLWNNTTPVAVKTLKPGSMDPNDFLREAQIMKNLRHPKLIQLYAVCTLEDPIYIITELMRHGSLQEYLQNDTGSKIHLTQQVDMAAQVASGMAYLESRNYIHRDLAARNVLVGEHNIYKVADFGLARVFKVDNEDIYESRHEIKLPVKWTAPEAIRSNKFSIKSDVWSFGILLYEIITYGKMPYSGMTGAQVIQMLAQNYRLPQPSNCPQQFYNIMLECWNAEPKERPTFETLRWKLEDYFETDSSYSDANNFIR
T2 sequence (P52564 whole entry): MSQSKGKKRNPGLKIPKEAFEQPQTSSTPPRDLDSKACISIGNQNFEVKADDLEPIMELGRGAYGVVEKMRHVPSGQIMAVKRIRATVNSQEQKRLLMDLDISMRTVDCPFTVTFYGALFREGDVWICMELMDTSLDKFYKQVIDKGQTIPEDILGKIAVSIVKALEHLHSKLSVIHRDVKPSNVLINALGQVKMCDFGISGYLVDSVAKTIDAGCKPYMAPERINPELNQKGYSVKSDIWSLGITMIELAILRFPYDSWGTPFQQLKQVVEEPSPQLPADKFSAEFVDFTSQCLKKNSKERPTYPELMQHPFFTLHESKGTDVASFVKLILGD

## O=C(c1c(F)ccc(NS(=O)(=O)CCCO)c1F)c1c[nH]c2ncc(-c3ccc(Cl)cc3)cc12 [200-17, N-[3-[5-(4-chlorophenyl)-1H-pyrrolo[2,3-b]pyridine-3-carbonyl]-2,4-difluorophenyl]-3-hydroxypropane-1-sulfonamide]
MAP2K7
  inhibition at 1 µM: < 50%
MAP2K6
  inhibition at 1 µM: < 50%
YES; [1]
  inhibition at 0.01 µM: < 30%
YES; inhibitor concentration 0.1 μM
  inhibition at 0.1 µM: > 50%
YES; inhibitor concentration 1 μM
  inhibition at 1 µM: > 50%
MAP2K5
  inhibition at 1 µM: > 50%
FLT1
  inhibition at 1 µM: > 50%
RET(S891A); [1]
  inhibition at 0.01 µM: < 30%
RET(S891A); inhibitor concentration 0.1 μM
  inhibition at 0.1 µM: > 50%
RET(S891A); inhibitor concentration 1 μM
  inhibition at 1 µM: > 50%
MST1; [1]
  inhibition at 0.01 µM: < 30%
MST1; inhibitor concentration 0.1 μM
  inhibition at 0.1 µM: > 50%
MST1; inhibitor concentration 1 μM
  inhibition at 1 µM: > 50%
FYN(isoform a); [1]
  inhibition at 0.01 µM: < 30%
FYN(isoform a); inhibitor concentration 0.1 μM
  inhibition at 0.1 µM: < 50%
FYN(isoform a); inhibitor concentration 1 μM
  inhibition at 1 µM: > 50%
p38β
  inhibition at 1 µM: > 50%
WNK3
  inhibition at 1 µM: > 50%
EPHA5
  inhibition at 1 µM: < 50%
RET(Y791F); [1]
  inhibition at 0.01 µM: < 30%
RET(Y791F); inhibitor concentration 0.1 μM
  inhibition at 0.1 µM: < 50%
RET(Y791F); inhibitor concentration 1 μM
  inhibition at 1 µM: > 50%
CSK; [1]
  inhibition at 0.01 µM: < 30%
CSK; inhibitor concentration 0.1 μM
  inhibition at 0.1 µM: > 50%
CSK; inhibitor concentration 1 μM
  inhibition at 1 µM: > 50%
ACK; [1]
  inhibition at 0.01 µM: < 30%
ACK; inhibitor concentration 0.1 μM
  inhibition at 0.1 µM: < 50%
ACK; inhibitor concentration 1 μM
  inhibition at 1 µM: > 50%
FGFR1
  inhibition at 1 µM: > 50%
ROCK1
  inhibition at 1 µM: < 50%
PKD1
  inhibition at 1 µM: < 50%
KIT(V654A)
  inhibition at 1 µM: > 50%
FLT4
  inhibition at 1 µM: > 50%
MST3
  inhibition at 1 µM: < 50%
MST4
  inhibition at 1 µM: < 50%
FRK
  inhibition at 1 µM: > 50%
